Values of other authors as cited in patent US11534458B2, “Phosphorus-sparing nutritional composition” (Albion Laboratories, Inc., priority 2013, dated 2022).
Read-outs that look alike come from different tables or passages of the source.

Legend:
healthy young women = settings: for iron absorption increased by a factor of: phytase 10 mg (190 FTU), maize porridge meal
[1] = phytate-rich diet

## O=C1O[C@H]([C@@H](O)CO)C(O)=C1O [ascorbic acid, reference compound]
Healthy young women; ascorbic acid alone, iron from NaFeEDTA
  effect on iron absorption: little effect
[1]
  iron absorption: markedly improved

## [Ca+2] [calcium]
For each 500 mg (12.5 mmol) supplemental calcium ingested
  decrease of phosphorus absorption: 5.4 mmol
For every 500 mg elemental calcium equivalent ingested
  decrease of phosphorus absorption: 166 mg

B1: Recombinant A. niger phytase: recombinant Aspergillus niger phytase (microbial 3-phytase enzyme) of literature studies (protein, UniProt P34752 24-467, looked up)
Phytase A: ASRNQSSCDTVDQGYQCFSETSHLWGQYAPFFSLANESVISPEVPAGCRVTFAQVLSRHGARYPTDSKGKKYSALIEEIQQNATTFDGKYAFLKTYNYSLGADDLTPFGEQELVNSGIKFYQRYESLTRNIVPFIRSSGSSRVIASGKKFIEGFQSTKLKDPRAQPGQSSPKIDVVISEASSSNNTLDPGTCTVFEDSELADTVEANFTATFVPSIRQRLENDLSGVTLTDTEVTYLMDMCSFDTISTSTVDTKLSPFCDLFTHDEWINYDYLQSLKKYYGHGAGNPLGPTQGVGYANELIARLTHSPVHDDTSSNHTLDSSPATFPLNSTLYADFSHDNGIISILFALGLYNGTKPLSTTTVENITQTDGFSSAWTVPFASRLYVEMMQCQAEQEPLVRVLVNDRVVPLHGCPVDALGRCTRDSFVRGLSFARSGGDWAECFA
Healthy young women; iron given as FeSO4
  iron absorption increased by a factor of: 1.71
Healthy young women; iron given as NaFeEDTA
  iron absorption increased by a factor of: 1.23
